# Experiments:
# [1] = system: Staphylococcus aureus 209P; experiment: Example 9: time-schedule of lactoferrin administration and efficacy of amoxicillin; assay type: in vivo, mice, ddY
# Method: (§1) For ED50 values, a range of amounts of antibiotics is given in the examples (e.g., penicillin G: 0.4, 0.2, 0.1, 0.05 mg/mouse). To calculate the ED50, groups of mice in the monotherapy groups and groups of mice in the combined therapy groups received the indicated amount of antibiotic (e.g., one group received 0.4 mg/mouse of penicillin G, one group received 0.2 mg/mouse of penicillin G, one group received 0.1 mg/mouse of penicillin G, one group received 0.05 mg/mouse of penicillin G).
# The effect of time-schedule of lactoferrin administration on the potentiation of antibiotic efficacy was examined using an experimental model similar to Example 1. Male ddY mice (n=10), five weeks old, weighing an average of 21.9 g, were used in this experiment. On day 0 all the mice were intraperitoneally injected with 1.2×10^5 CFU/mouse of Staphylococcus aureus 209P. Amoxicillin ([…], 0.625 mg/mouse) was orally given one hour after the injection.
# [2] = system: Klebsiella pneumoniae 3K25; experiment: Example 7: experimental infection in mice, cefaclor with or without native lactoferrin; assay type: in vivo, strain ddY; conditions: Klebsiella pneumoniae, 3K25, po, 168 h, 1.5 × 10^6 CFU/mouse
# bacteria in urine = experiment: Example 11: patients with chronic urinary tract infection, cefaclor with or without apolactoferrin; assay type: in vivo, human patients; conditions: four weeks
# Method: Seventeen patients (male 6, female 11, an average 63.5 years old) with chronic urinary tract infection were randomly allocated into two groups. All these patients excreted at least one species of bacteria in their urine for longer than four weeks, although they were treated orally with antibacterial agents. The first group (n=9) was treated for four weeks with 1,200 mg of cefaclor (400 mg, three times a day) and the second group (n=8) with the same dose of cefaclor (three times a day) combined with 600 mg of apolactoferrin (200 mg, three times a day). Urine specimens were collected every one week and the species of bacteria were identified and the quantity of excreted bacteria determined.
# [3] = system: Klebsiella pneumoniae strain 3K25; experiment: Example 3: experimental infection in mice, cefaclor with or without hololactoferrin; assay type: in vivo, strain ICR; conditions: p.o. 1 h after 1×10^6 CFU/mouse
# Method: as §1
# Sixty male mice, strain ICR, five weeks of age, weighing 21.3±1.5 g (mean±the standard deviation) were randomly allocated into ten groups (n=6), and intraperitoneally injected with Klebsiella pneumoniae strain 3K25, 1×10^6 CFU/mouse. One hour after the injection, the first group was orally given 0.2 ml of physiological saline, the second group orally given hololactoferrin (100% ferric ion saturated lactoferrin, 0.4 mg/mouse), the third through the sixth groups orally given cefaclor (2.0, 1.0, 0.5 and 0.25 mg/mouse each) in 0.2 ml of saline, and the seventh through the tenth groups orally given cefaclor (2.0, 1.0, 0.5 and 0.25 mg/mouse each) and hololactoferrin (100% iron saturated lactoferrin, 0.4 mg/mouse) in 0.2 ml of saline. The mice were fed ad libitum and observed for one week under the same conditions as described in Example 1.
# Str. epidermids FT = experiment: Example 10: experimental infection in mice, cefazolin with or without lactoferrin; assay type: in vivo; conditions: for ED50: 1000 MLD i.p.
# Method: as §1
# (§2) The potentiation of antibiotic efficacy by lactoferrin was examined using an infection model similar to Example 1. The antibiotics and lactoferrin were administered immediately after the injection (see Table 8). […] Lactoferrin (0.4 mg/mouse) potentiates the efficacies of the four beta-lactam antibiotics used: penicillin G against Streptococcus pyogenes infection was potentiated by 4.6 fold, cefazolin against S. epidermidis by 3.1 fold, methicillin against Diplococcus pneumoniae by 3.7 fold, and cloxacillin against Pseudomonas aeruginosa by 3.0 fold. Therefore, lactoferrin potentiates the efficacy of beta-lactam antibiotics against diseases caused by both gram-positive and gram-negative pathogenic bacteria.
# [4] = system: Klebsiella pneumoniae strain 3K25; experiment: Example 5: experimentally infected fed and fasted mice, cefpodoxime with or without native lactoferrin; assay type: in vivo, strain ICR
# Method: as §1
# Male mice, strain ICR, five weeks old, weighing an average of 21.6 g, were randomly allocated into sixteen groups (n =6). During the next 24 hours, eight groups were allowed free access to diet and water, while the other eight groups were fasted overnight. On the next day, all the mice were injected with 1.4×10^6 CFU/mouse of Klebsiella pneumoniae strain 3K25. The minimal lethal dose of this bacterium is […], and thus the injected dose was 1,000 times greater than the minimal lethal dose. Immediately after the injection, the fed groups were orally given cefpodoxime (10, 5, 2.5, and 1.25 mg/mouse) simultaneously with or without native lactoferrin (0.2 mg/mouse). The fasted groups also were orally given cefpodoxime (10, 5, 2.5, and 1.25 mg/mouse) simultaneously with or without native lactoferrin (0.2 mg/mouse).
# [5] = system: Klebsiella pneumoniae strain 3K25; experiment: Example 2: experimental infection in mice, cefpodoxime with or without apolactoferrin; assay type: in vivo, strain ICR; conditions: for ED50: p.o. 1 h after 5×10^5 CFU/mouse
# Method: as §1
# Sixty male mice, strain ICR, five weeks of age, weighing 19.3±1.1 g (mean body weight±the standard deviation) were randomly allocated into ten groups (n=6), and intraperitoneally injected with pneumobacilli, Klebsiella pneumoniae strain 3K25, 5×10^5 CFU/mouse. One hour after the injection, the first group was orally given 0.2 ml of physiological saline, the second group orally given iron free apolactoferrin (0.4 mg) in 0.2 ml of saline, the third through the sixth groups were orally given cefpodoxime (4, 2, 1, and 0.5 mg/mouse) in 0.2 ml saline, and the seventh through the tenth groups orally given the admixture of cefpodoxime (4, 2, 1, and 0.5 mg/mouse) and apolactoferrin (0.4 mg) in 0.2 ml of saline. Mice were fed ad libitum and observed for a week under the same conditions as described in Example 1.
# [6] = system: Klebsiella pneumoniae strain 3K25; experiment: Example 1: experimental infection in mice, cefpodoxime with or without native lactoferrin; assay type: in vivo, strain ICR
# Method: as §1
# Sixty male mice, strain ICR, four weeks of age, body weight 19±1.0 g (mean±the standard deviation) were randomly divided into ten groups (n=6); the first group was assigned to the untreated control, the second group to the lactoferrin treated control group, the third through the sixth groups to the cephalosporin treated controls, and the seventh through the tenth groups to the combined treatment group of cephalosporin and lactoferrin. The mice were intraperitoneally injected with pneumobacillus, Klebsiella pneumoniae strain 3K25, 5×10^6 colony forming units (CFU) per mouse. The antibiotics used were orally active cephalosporin or cefpodoxime, and the bovine lactoferrin was the native one derived from cheese whey with 28.5% iron-saturation. One hour after the injection, the untreated control was orally given 0.2 ml of physiological saline, the second group orally given lactoferrin (0.4 mg/mouse), the third through the sixth groups were orally given cefpodoxime (10, 5, 2.5 and 1.25 mg/mouse) in 0.2 ml of physiological saline, the seventh through the tenth groups orally given the admixture of cefpodoxime (5, 2.5, 1.25, and 0.625 mg/mouse) together with lactoferrin (0.4 mg/mouse) in 0.2 ml of the saline. All the mice were housed in an animal room, allowed free access to commercial pellet diet and water, and observed for one week.
# [7] = system: Klebsiella pneumoniae strain 3K25; experiment: Example 8: dose-response relationship of potentiation of cefpodoxime efficacy by oral lactoferrin; assay type: in vivo, mice, ddY
# Method: as §1
# The dose-response relationship of the potentiation of the antibiotic efficacy by lactoferrin was determined using the same experimental infection system as described in Example 1. Male ddY mice, five weeks of age, weighing approximate 20.3 g, were randomly allocated into groups (n=10); the first group was assigned to the cefpodoxime control (5 mg/mouse). The mice were intraperitoneally injected with pneumobacillus, Klebsiella pneumoniae strain 3K25, 3×10^5 per mouse. One hour after the injection, the antibiotic cefpodoxime (1, 0.5, 0.25 and 0.125 mg/mouse) was orally given in 0.2 ml of physiological saline.
# Escherichia coli #11 = experiment: Example 7: experimental infection in mice, cephalexin with or without native lactoferrin; assay type: in vivo, strain ddY; conditions: po, 168 h, 1.7 × 10^6 CFU/mouse
# Method: as §1
# Male mice, strain ddY, five weeks old, were randomly allocated into groups (n=10), and were intraperitoneally injected with Proteus mirabilis GN79 (1.3×10^6 CFU/mouse) or with Escherichia coli #11 (1.7×10^6 CFU/mouse) or with Klebsiella pneumoniae 3K25 (1.5×10^6 CFU/mouse). The doses are 1,000 times greater than the minimum lethal dose. Immediately after the injection, the first eight groups were orally given ampicillin, the second eight groups were orally given cephalexin, and the third eight groups were orally given cefaclor, respectively, each simultaneously with or without native lactoferrin (1 mg/mouse) in 0.2 ml of distilled water (see Table 7). All the mice were fed ad libitum and observed for one week under the same conditions as described in Example 1.
# [8] = system: Pseudomonas aeruginosa E8; experiment: Example 10: experimental infection in mice, cloxacillin with or without lactoferrin; assay type: in vivo; conditions: for ED50: 10 MLD i.p.
# Method: as §1, §2
# [9] = system: Diplococcus pneumoniae Ch; experiment: Example 10: experimental infection in mice, methicillin with or without lactoferrin; assay type: in vivo; conditions: for ED50: 100 MLD i.p.
# Method: as §1, §2
# [10] = system: Streptococcus pyogenes #59; experiment: Example 10: experimental infection in mice, penicillin G with or without lactoferrin; assay type: in vivo; conditions: for ED50: 1000 MLD i.p.
# Method: as §1, §2
# [11] = cefazolin with lactoferrin (0.4 mg/mouse)
# [12] = cloxacillin with lactoferrin (0.4 mg/mouse)
# [13] = methicillin with lactoferrin (0.4 mg/mouse)
# [14] = penicillin G with lactoferrin (0.4 mg/mouse)
compound,measurement,setting,value
CC1(C)S[C@@H]2[C@H](NC(=O)[C@H](N)c3ccc(O)cc3)C(=O)N2[C@H]1C(=O)O [amoxicillin],ED50,"[1]; amoxicillin control, no lactoferrin",2.46 mg/mouse
same,ED50,"[1]; amoxicillin, lactoferrin (0.5 mg/mouse) dosed +3 (hr)",0.78 mg/mouse
same,ED50,"[1]; amoxicillin, lactoferrin (0.5 mg/mouse) dosed +12 (hr)",2.48 mg/mouse
same,ED50,"[1]; amoxicillin, lactoferrin (0.5 mg/mouse) dosed -1 (day)",1.39 mg/mouse
same,ED50,"[1]; amoxicillin, lactoferrin (0.5 mg/mouse) dosed -2 (day)",2.46 mg/mouse
same,ED50,"[1]; amoxicillin, lactoferrin (0.5 mg/mouse) dosed -3 (day)",2.46 mg/mouse
same,ED50,"[1]; amoxicillin, lactoferrin (0.5 mg/mouse) dosed -5 (day)",2.14 mg/mouse
same,ED50,"[1]; amoxicillin, lactoferrin (0.5 mg/mouse) dosed -6 (hr)",0.40 mg/mouse
same,ED50,"[1]; amoxicillin, lactoferrin (0.5 mg/mouse) dosed -12 (hr)",0.55 mg/mouse
same,ED50,"[1]; amoxicillin, lactoferrin (0.5 mg/mouse) dosed at 0",0.40 mg/mouse
N[C@@H](C(=O)N[C@@H]1C(=O)N2C(C(=O)O)=C(Cl)CS[C@H]12)c1ccccc1 [cefaclor],ED50,[2]; cefaclor alone,28.5 mg/kg
same,ED50,[2]; cefaclor with lactoferrin (1 mg/mouse),10 mg/kg
same,bacteria in the urine,"bacteria in urine; cefaclor 1,200 mg combined with 600 mg apolactoferrin daily",bacteria were no longer detected in the urine
same,patients still excreting bacteria,"bacteria in urine; cefaclor monotherapy 1,200 mg daily",six patients out of nine
same,efficacy of combined therapy versus monotherapy,bacteria in urine; cefaclor with apolactoferrin,significantly more effective
same,ED50,[3]; cefaclor combined therapy with hololactoferrin (0.4 mg/mouse),0.30 mg/mouse
same,ED50,[3]; cefaclor monotherapy,0.63 mg/mouse
Cc1nnc(SCC2=C(C(=O)O)N3C(=O)[C@@H](NC(=O)Cn4cnnn4)[C@H]3SC2)s1 [cefazolin],ED50,Str. epidermids FT; cefazolin control,0.152 mg/mouse
same,potentiation of efficacy by lactoferrin,Str. epidermids FT; [11],3.1 fold
same,ED50,Str. epidermids FT; [11],0.048 mg/mouse
COCC1=C(C(=O)O)N2C(=O)[C@@H](NC(=O)/C(=N\OC)c3csc(N)n3)[C@H]2SC1 [cefpodoxime],ED50,"[4]; fasted, cefpodoxime (antibiotic) alone",39.40 (27.15-56.15) mg/mouse
same,ED50,"[4]; fasted, cefpodoxime admixture with lactoferrin (0.2 mg/mouse)",7.80 (5.65-10.83) mg/mouse
same,ED50,"[4]; fed, cefpodoxime (antibiotic) alone",15.65 (11.45-21.30) mg/mouse
same,ED50,"[4]; fed, cefpodoxime admixture with lactoferrin (0.2 mg/mouse)",4.90 (3.65-6.60) mg/mouse
same,ED50,"[5]; cefpodoxime combined therapy with apolactoferrin (0.4 mg), range 0.19-0.33 mg printed",0.25 mg/mouse
same,ED50,"[5]; cefpodoxime monotherapy, range 0.74-1.32 mg/mouse printed",0.99 mg/mouse
same,recovery of mice,"[5]; cefpodoxime with apolactoferrin, combined therapy group",all the mice recovered
same,ED50,"[6]; cefpodoxime alone, p.o. 1 h after i.p. injection of 5×10^6 CFU/mouse, 95% range not named (6.3-10.0 mg/mouse printed)",7.93 mg/mouse
same,life span versus untreated and lactoferrin controls,[6]; cefpodoxime treated group,significantly prolonged
same,ED50,"[6]; cefpodoxime with native lactoferrin (0.4 mg/mouse), p.o. 1 h after injection of 5×10^6 CFU/mouse, range 0.92-1.70 mg/mouse printed",1.25 mg/mouse
same,life span versus untreated and lactoferrin controls,[6]; combined treatment groups of cefpodoxime and lactoferrin,significantly prolonged
same,ED50,[7]; cefpodoxime with lactoferrin 0.00 mg/mouse,0.473 mg/mouse
same,ED50,[7]; cefpodoxime with lactoferrin 0.005 mg/mouse,0.382 mg/mouse
same,ED50,[7]; cefpodoxime with lactoferrin 0.05 mg/mouse,0.104 mg/mouse
same,ED50,[7]; cefpodoxime with lactoferrin 0.5 mg/mouse,0.104 mg/mouse
same,ED50,[7]; cefpodoxime with lactoferrin 5.0 mg/mouse,0.104 mg/mouse
same,ED50,[7]; cefpodoxime with lactoferrin 50.0 mg/mouse,0.104 mg/mouse
CC1=C(C(=O)O)N2C(=O)[C@@H](NC(=O)[C@H](N)c3ccccc3)[C@H]2SC1 [cephalexin],ED50,Escherichia coli #11; cephalexin alone,216 mg/kg
same,ED50,Escherichia coli #11; cephalexin with lactoferrin (1 mg/mouse),34.8 mg/kg
Cc1onc(-c2ccccc2Cl)c1C(=O)N[C@@H]1C(=O)N2[C@@H]1SC(C)(C)[C@@H]2C(=O)O [cloxacillin],ED50,[8]; cloxacillin control,3.16 mg/mouse
same,potentiation of efficacy by lactoferrin,[8]; [12],3.0 fold
same,ED50,[8]; [12],1.06 mg/mouse
COc1cccc(OC)c1C(=O)N[C@@H]1C(=O)N2[C@@H]1SC(C)(C)[C@@H]2C(=O)O [methicillin],ED50,[9]; methicillin control,0.227 mg/mouse
same,potentiation of efficacy by lactoferrin,[9]; [13],3.7 fold
same,ED50,[9]; [13],0.061 mg/mouse
CC1(C)S[C@@H]2[C@H](NC(=O)Cc3ccccc3)C(=O)N2[C@H]1C(=O)O [penicillin G],ED50,[10]; penicillin G control,0.106 mg/mouse
same,potentiation of efficacy by lactoferrin,[10]; [14],4.6 fold
same,ED50,[10]; [14],0.023 mg/mouse
